Values belong to the compound of their own block, whether it stands above or below them.
What was measured:
Nurr1:RXRα heterodimer = Nurr1:RXRα heterodimer (Homo sapiens (Human), UniProt P19793); test: Nurr1:RXRα-dependent luciferase reporter (DR5-TK-Luc) transactivation assay; assay type: cell-based; details: SHSY-5Y cells co-transfected with human Nurr1, RXRα and DR5-TK-Luc
[1] = Plasma and brain concentrations by LC-MS/MS after IP administration to mice; assay type: in vivo, mouse
Description: FIGS. 68A and 68B show the pharmacokinetic profile of XCT in blood plasma and in the brain of mice injected with this compound. […] Serial tail bleeds (n=3) were used for detection of the compound in plasma 1 and 2 hours after IP administration. Similarly, mice (n=3) were sacrificed 1 and 2 hours after IP administration and brains were dissected. The concentrations of the parent compound in plasma and brain were determined by LC-MS/MS.
The concentrations of the parent compound in plasma and brain were determined by LC/MSMS.
XCT0135908 was administered to mice to test its bioactivity.

c-jun = test: Midbrain c-jun expression by qPCR after administration to mice; assay type: in vivo, mouse
Description: FIGS. 69A-69C show the brain penetration, half-life, and c-jun transcriptional activation of compound 3. […] Mice (n=5) were sacrificed 1, 2, 4, 8 and 24 hours after IP administration and brains were dissected 1, 2, 4, 8 and 24 hours post administration. The concentrations of the parent compound in plasma and brain were determined by LC/MSMS.
(§1) To assess the neuroprotective effect of compound 3, this compound was dosed to wt mice intraperitoneally (IP) at 10 mg/kg injections of compound 3 in Ethanol:PG:Saline 10:30:60. After 2 h and 4 h animals (n=3 per time point) were sacrificed, and their brains obtained. After extraction c-jun and tyrosine hydroxylase (TH) levels in brain extract were determined by qPCR (FIG. 1E, 1F).

[2] = tested on: SHSY-5Y dopaminergic cells; test: MPP+ induced cell death, MTT assay; assay type: cell-based, human; details: 12.5 μM, varying concentrations of MPP+
Description: MPP+, eradicates approximately 75% of the cells in 24 hours. […] Naive Neuro2A cells (FIG. 2A) or SH-SY5Y neuroblastoma cells FIG. 2B,C) were cultured in RPMI 1640, 10% fetal bovine serum at 37° C. Cells were pretreated with compound 3 for 12-24 h. Subsequent change of culture medium with addition of 0, 1, 2 and 4 mM MPP+ induced cell death. MTT assays determined the relative number of surviving cells FIG. 2D).
Such assays were performed, for instance, by adding compound 46 (12.5 μM) to human origin SHSY-5Y dopaminergic cells in which death was induced by the mitochondria complex I inhibitor MPP+ (1-methyl-4-phenylpyridinium), the active metabolite of MPTP (1-methyl-4-phenyl-1,2,3,6-tetrahydropyridine). […] Most of the MPP+-treated cells receiving vehicle died, while the few surviving cells remained attached to the plate but were rounded and had lost all projections. These morphological changes indicated impaired neuronal function. On the contrary, cells treated with compound 46 appeared healthy, flattened, well-attached, and their projections remained intact.
We examined the neuroprotective capability of Nurr1:RXRα heterodimer activation in SHSY-5Y cells where death was induced by either the oxidative stress related H2O2 or the mitochondria complex I inhibitor MPP+ (1-methyl-4-phenylpyridinium) (FIG. 72B). […] The protection conferred by compound 3 was Nurr1-dependent, since it was abrogated by knocking-down endogenous Nurr1 mRNA (FIGS. 1E and 72D). The neuroprotective effects of compound 3 extend to damage induced by the PD-associated mutation G2019S in the Leucine-Rich Repeat Kinase 2 (LRRK2) gene, the most common genetic defect associated with clinical PD (Tofaris et al. J. Neurosci. 26:3942-3950, 2006). Rat cortical neurons, co-transfected with CMV-GFP for identification, and CMVLRRK2-G2019S cDNAs show increased apoptosis as assessed by DAPI staining, compared to control neurons co-transfected with a LRRK2 wt cDNA.

Nur77:RXRα heterodimers = Nur77:RXRα heterodimers (Homo sapiens (Human), UniProt P19793); test: Relative activation of Nurr1 and Nur77 in a luciferase reporter assay; assay type: cell-based; details: FIG. 67
Chain of Nur77:RXRα heterodimers (P19793 whole entry, looked up): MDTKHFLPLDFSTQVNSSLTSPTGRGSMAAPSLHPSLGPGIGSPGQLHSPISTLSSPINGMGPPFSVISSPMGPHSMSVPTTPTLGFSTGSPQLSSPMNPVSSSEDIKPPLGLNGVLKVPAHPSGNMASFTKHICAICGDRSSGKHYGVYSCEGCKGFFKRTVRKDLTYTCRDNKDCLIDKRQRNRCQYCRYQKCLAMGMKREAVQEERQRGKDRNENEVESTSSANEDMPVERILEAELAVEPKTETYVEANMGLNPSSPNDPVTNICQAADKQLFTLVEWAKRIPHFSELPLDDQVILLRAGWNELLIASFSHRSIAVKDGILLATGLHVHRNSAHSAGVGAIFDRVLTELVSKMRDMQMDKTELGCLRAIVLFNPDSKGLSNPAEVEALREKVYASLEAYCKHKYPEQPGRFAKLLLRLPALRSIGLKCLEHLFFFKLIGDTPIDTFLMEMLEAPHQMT
Chain of Nur77:RXRα heterodimers (P22736 whole entry partner, looked up): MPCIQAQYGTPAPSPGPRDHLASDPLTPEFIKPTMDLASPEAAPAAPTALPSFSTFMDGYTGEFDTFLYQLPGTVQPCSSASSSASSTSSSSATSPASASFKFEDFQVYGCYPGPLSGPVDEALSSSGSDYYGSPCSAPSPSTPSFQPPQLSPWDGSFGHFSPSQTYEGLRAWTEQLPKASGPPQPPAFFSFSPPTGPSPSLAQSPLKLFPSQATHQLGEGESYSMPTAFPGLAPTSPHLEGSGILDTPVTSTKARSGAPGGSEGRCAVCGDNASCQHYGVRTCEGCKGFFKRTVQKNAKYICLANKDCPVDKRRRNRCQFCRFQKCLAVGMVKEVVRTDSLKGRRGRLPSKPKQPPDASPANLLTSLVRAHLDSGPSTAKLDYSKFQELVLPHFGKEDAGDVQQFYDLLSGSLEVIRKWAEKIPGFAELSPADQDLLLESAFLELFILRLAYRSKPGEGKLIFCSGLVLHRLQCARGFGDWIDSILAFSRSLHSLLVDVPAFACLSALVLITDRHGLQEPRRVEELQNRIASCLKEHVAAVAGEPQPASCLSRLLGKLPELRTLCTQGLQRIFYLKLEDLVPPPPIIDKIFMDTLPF

[3] = tested on: tyrosine hydroxylase (TH); test: Midbrain tyrosine hydroxylase expression by qPCR after administration to mice; assay type: in vivo, mouse; details: mice, IP or intracerebroventricular 1 and 10 mg/kg, different time points
Description: as §1
Given the role of Nurr1:RXRα activation in the transcriptional regulation of DA biosynthesis genes, we tested whether compound 3 could increase DA levels in wt and ASYN transgenic mice (Tofaris et al. J. Neurosci. 26:3942-3950, 2006), which display reduced striatal DA levels after reaching adulthood. […] Aiming to model PD based on human genetic data, we also tested whether compound 3 could increase DA levels in ASYN transgenic mice. A single IP injection of compound 3 (10 mg/kg) was able increase striatal DA (t test p=0.01069) and DA metabolite levels in ASYN transgenics as well (FIG. 75C) in comparison to mice receiving vehicle.

Chain of Nurr1:RXRα heterodimer (P19793 whole entry): as the sequence (P19793 whole entry, looked up) above
Chain of Nurr1:RXRα heterodimer (P43354 whole entry partner): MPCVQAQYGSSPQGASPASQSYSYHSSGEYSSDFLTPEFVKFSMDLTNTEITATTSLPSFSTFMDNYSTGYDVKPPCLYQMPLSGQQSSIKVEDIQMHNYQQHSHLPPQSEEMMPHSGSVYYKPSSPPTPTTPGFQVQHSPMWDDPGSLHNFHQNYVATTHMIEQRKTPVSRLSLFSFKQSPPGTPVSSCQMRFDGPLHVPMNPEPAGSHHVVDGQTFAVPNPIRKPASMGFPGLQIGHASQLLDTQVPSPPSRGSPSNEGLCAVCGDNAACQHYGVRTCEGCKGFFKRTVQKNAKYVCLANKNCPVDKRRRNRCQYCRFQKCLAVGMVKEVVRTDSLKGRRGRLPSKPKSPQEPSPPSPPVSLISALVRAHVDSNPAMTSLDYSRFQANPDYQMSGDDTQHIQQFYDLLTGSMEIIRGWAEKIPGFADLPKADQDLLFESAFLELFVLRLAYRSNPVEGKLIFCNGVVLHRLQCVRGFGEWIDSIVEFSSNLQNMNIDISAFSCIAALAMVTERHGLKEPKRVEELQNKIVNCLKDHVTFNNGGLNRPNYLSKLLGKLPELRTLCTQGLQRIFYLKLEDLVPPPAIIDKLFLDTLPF

EC50 (Nurr1:RXRα heterodimer): 700 nM
bioavailability ([1]; mouse, in vivo, ip): highly bioavailable
Compound: Cc1nc(-c2ccccc2)nc2c1cc(C)n2-c1ccc(C(=O)O)cc1Br [Example 46, 3-bromo-4-(4,6-dimethyl-2-phenyl-7H-pyrrolo[2,3-d]pyrimidin-7-yl)benzoic acid]
brain penetration ([1]; mouse, in vivo, ip): capable of crossing the blood brain barrier
c-jun transcriptional activation in the midbrain (c-jun; IP compound 46, qPCR 2 hours after administration): significant c-jun transcriptional activation
cell survival against MPP+ [2]: significantly increased the survival of cells

EC50 (Nurr1:RXRα heterodimer): 5000 nM
Compound: C=CCc1c(C)nc(-c2ccccc2)nc1Nc1ccc(C(=O)OCCCOc2ccc(C[C@H](N)C(=O)O)cc2)cc1 [Example 32, (S)-2-(4-(3-(4-(5-allyl-6-methyl-2-phenylpyrimidin-4-ylamino)benzoyloxy)propoxy)phenyl)-1-carboxyethanaminium chloride]

EC50 (Nurr1:RXRα heterodimer): 10000 nM
Compound: C=CCc1c(C)nc(-c2ccccc2)nc1Nc1ccc(C(=O)Oc2ccc(C[C@H](N)C(=O)O)cc2)cc1 [Example 31, (S)-2-(4-(4-(5-allyl-6-methyl-2-phenylpyrimidin-4-ylamino)benzoyloxy)phenyl)-1-carboxyethanaminium chloride]

EC50 (Nurr1:RXRα heterodimer): 2500 nM
Compound: Cc1nc(-c2ccccc2)nc2c1cc(C)n2-c1ccc(C(=O)O)cc1 [Example 45, 4-(4,6-dimethyl-2-phenyl-7H-pyrrolo[2,3-d]pyrimidin-7-yl)benzoic acid]

Compound: C=CCc1c(C)nc(-c2ccccc2)nc1Nc1ccc(C(=O)O)cc1 [XCT0135908, reference compound]
relative activation of Nur77:RXRα vs Nurr1:RXRα heterodimers (Nur77:RXRα heterodimers): preferentially activates Nur77:RXRα heterodimers and not Nurr1:RXRα heterodimers
compound stability in vivo ([1]; mice, 1 and 2 hours after IP, plasma and brain homogenates): low compound stability
brain penetration ([1]; mice, IP administration): minimal brain penetration
Kp ([1]; mouse, brain homogenate / blood plasma, mice, 1 and 2 hours after IP XCT (printed 1 μg/kg), LC-MS/MS): < 0.03
midbrain c-jun expression (c-jun; IP or intracerebroventricular 1 and 10 mg/kg, different time points): did not result in any expression alterations
midbrain TH expression [3]: did not result in any expression alterations

EC50 (Nurr1:RXRα heterodimer): 2000 nM
Compound: C=CCc1c(C)nc(-c2ccccc2)nc1Nc1ccc(C(=O)OCOC(=O)C(C)(C)C)cc1 [Example 30, pivaloyloxymethyl 4-(5-allyl-6-methyl-2-phenylpyrimidin-4-ylamino)benzoate]

Reference: patent publication US10946019B2, “Nurr1:RXR activating compounds for simultaneous treatment of symptoms and pathology of Parkinson's disease” (priority 2015, dated 2021)
